Data as given in article PMC3627370 (Journal of the American Chemical Society, 2013).

What was measured:
[1] = molecular target: T1, nicotinamide phosphoribosyltransferase (NAMPT) (Homo sapiens, UniProt P43490); format: biochemical
[2] = molecular target: T1, nicotinamide phosphoribosyltransferase (NAMPT); assay: dissociation constant determination at […] °C, pH […]; format: binding

T1 sequence (P43490 whole entry): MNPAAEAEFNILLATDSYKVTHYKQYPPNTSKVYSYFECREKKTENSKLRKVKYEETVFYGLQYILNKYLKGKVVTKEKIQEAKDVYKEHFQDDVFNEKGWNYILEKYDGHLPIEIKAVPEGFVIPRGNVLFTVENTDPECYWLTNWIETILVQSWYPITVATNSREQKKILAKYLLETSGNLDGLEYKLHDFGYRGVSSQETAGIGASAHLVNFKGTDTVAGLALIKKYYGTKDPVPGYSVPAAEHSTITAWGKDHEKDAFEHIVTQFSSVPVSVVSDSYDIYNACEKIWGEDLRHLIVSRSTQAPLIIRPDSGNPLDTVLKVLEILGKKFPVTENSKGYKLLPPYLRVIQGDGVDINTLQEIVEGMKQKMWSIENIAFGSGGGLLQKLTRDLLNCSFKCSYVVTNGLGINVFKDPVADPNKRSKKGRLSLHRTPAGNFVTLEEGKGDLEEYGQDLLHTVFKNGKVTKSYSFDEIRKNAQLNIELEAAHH

| Ki [1] | Kd [2] | SMILES |
| --- | --- | --- |
| 2.5 µM |  | O=[N+]([O-])c1ccc(O[C@@H]2O[C@H](COP(=O)(O)O)[C@@H](O)[C@H]2O)cc1 [5P-pNR, 5-phospho-p-nitrophenyl β-D-ribofuranoside] |
|  | 34 ± 2 µM | NC(=O)c1ccc[n+]([C@@H]2O[C@H](COP(=O)([O-])O)[C@@H](O)[C@H]2O)c1 [NMN, nicotinamide mononucleotide] |
